Laboratory results as given in ChEMBL document CHEMBL3885861, “Open TG-GATES”.

Organism: Rattus norvegicus
Test: Open TG-GATES - Regimen: Daily Repeat
Type: toxicity, organism-based, Sprague-Dawley
Set-up: regimen Daily Repeat, gender Male, age 6 weeks
Settings: in vivo, po, 600 mg/kg, route gavage, dose level High; for APTT / Bas / Eos / Fbg / Hb / Ht / Lym / MCH / MCHC / MCV / Mono / Neu / PT / Plat / RBC / Ret / WBC: tissue Blood; for KIDNEY_L / KIDNEY_R / KIDNEY_TOTAL: tissue Kidney; for LIVER: tissue Liver; for A/G / ALP / ALT / AST / BUN / CRE / Ca / Cl / DBIL / GLC / IP / K / LDH / Na / PL / RALB / TBIL / TC / TG / TP / gamma-GTP: tissue Plasma

CCOC(=O)[C@H](CCc1ccccc1)N[C@@H](C)C(=O)N1CCC[C@H]1C(=O)O
TERMINAL_BW (72 h, time 3 day): 244.3 g
APTT (72 h, time 3 day): 16 s
Bas (72 h, time 3 day): 0%
Eos (72 h, time 3 day): 1.4%
Fbg (72 h, time 3 day): 232.8 mg/dL
Hb (72 h, time 3 day): 13 g/dL
Ht (72 h, time 3 day): 38.8%
Lym (72 h, time 3 day): 79.6%
MCH (72 h, time 3 day): 20.9 pg
MCHC (72 h, time 3 day): 33.4%
MCV (72 h, time 3 day): 62.5 fL
Mono (72 h, time 3 day): 6.6%
Neu (72 h, time 3 day): 12.2%
PT (72 h, time 3 day): 11.6 s
Plat (72 h, time 3 day): 116.5 x10_4/uL
RBC (72 h, time 3 day): 620.6 x10_4/ul
Ret (72 h, time 3 day): 4.9%
WBC (72 h, time 3 day): 116.9 x10_2/uL
KIDNEY_L (72 h, time 3 day): 1 g
KIDNEY_R (72 h, time 3 day): 1.1 g
KIDNEY_TOTAL (72 h, time 3 day): 2.1 g
LIVER (72 h, time 3 day): 11.4 g
A/G (72 h, time 3 day): 1.8
ALP (72 h, time 3 day): 892.2 IU/L
ALT (72 h, time 3 day): 33.2 IU/L
AST (72 h, time 3 day): 58.2 IU/L
BUN (72 h, time 3 day): 25.2 mg/dL
CRE (72 h, time 3 day): 0.5 mg/dL
Ca (72 h, time 3 day): 11 mg/dL
Cl (72 h, time 3 day): 104 meq/L
DBIL (72 h, time 3 day): 0.02 mg/dL
GLC (72 h, time 3 day): 193.2 mg/dL
IP (72 h, time 3 day): 8.9 mg/dL
K (72 h, time 3 day): 4.9 meq/L
LDH (72 h, time 3 day): 83.6 IU/L
Na (72 h, time 3 day): 138.8 meq/L
PL (72 h, time 3 day): 154.2 mg/dL
RALB (72 h, time 3 day): 3.8 g/dL
TBIL (72 h, time 3 day): 0.3 mg/dL
TC (72 h, time 3 day): 85.8 mg/dL
TG (72 h, time 3 day): 93.6 mg/dL
TP (72 h, time 3 day): 5.9 g/dL
gamma-GTP (72 h, time 3 day): 1.4 IU/L
TERMINAL_BW ([…], time 7 day): 266.1 g
TERMINAL_BW ([…], time 14 day): 298.8 g
TERMINAL_BW ([…], time 28 day): 358.5 g
APTT ([…], time 7 day): 15.8 s
Bas ([…], time 7 day): 0%
Eos ([…], time 7 day): 1.2%
Fbg ([…], time 7 day): 228.2 mg/dL
Hb ([…], time 7 day): 12.5 g/dL
Ht ([…], time 7 day): 37.8%
Lym ([…], time 7 day): 78.2%
MCH ([…], time 7 day): 21.1 pg
MCHC ([…], time 7 day): 33.2%
MCV ([…], time 7 day): 63.8 fL
Mono ([…], time 7 day): 6.4%
Neu ([…], time 7 day): 14.8%
PT ([…], time 7 day): 11.7 s
Plat ([…], time 7 day): 110 x10_4/uL
RBC ([…], time 7 day): 593.8 x10_4/ul
Ret ([…], time 7 day): 3.8%
WBC ([…], time 7 day): 113.9 x10_2/uL
APTT ([…], time 14 day): 16.5 s
Bas ([…], time 14 day): 0%
Eos ([…], time 14 day): 1.2%
Fbg ([…], time 14 day): 232.2 mg/dL
Hb ([…], time 14 day): 12.6 g/dL
Ht ([…], time 14 day): 37.8%
Lym ([…], time 14 day): 80%
MCH ([…], time 14 day): 20.7 pg
MCHC ([…], time 14 day): 33.4%
MCV ([…], time 14 day): 61.9 fL
Mono ([…], time 14 day): 4.2%
Neu ([…], time 14 day): 14.4%
PT ([…], time 14 day): 11.7 s
Plat ([…], time 14 day): 102.3 x10_4/uL
RBC ([…], time 14 day): 611.2 x10_4/ul
Ret ([…], time 14 day): 3.3%
WBC ([…], time 14 day): 122.6 x10_2/uL
APTT ([…], time 28 day): 16 s
Bas ([…], time 28 day): 0%
Eos ([…], time 28 day): 1%
Fbg ([…], time 28 day): 249.8 mg/dL
Hb ([…], time 28 day): 13.9 g/dL
Ht ([…], time 28 day): 41.5%
Lym ([…], time 28 day): 84.2%
MCH ([…], time 28 day): 19.4 pg
MCHC ([…], time 28 day): 33.5%
MCV ([…], time 28 day): 57.9 fL
Mono ([…], time 28 day): 4.8%
Neu ([…], time 28 day): 9.8%
PT ([…], time 28 day): 11.6 s
Plat ([…], time 28 day): 114.3 x10_4/uL
RBC ([…], time 28 day): 717.4 x10_4/ul
Ret ([…], time 28 day): 5%
WBC ([…], time 28 day): 148.4 x10_2/uL
KIDNEY_L ([…], time 7 day): 1.2 g
KIDNEY_R ([…], time 7 day): 1.3 g
KIDNEY_TOTAL ([…], time 7 day): 2.5 g
KIDNEY_L ([…], time 14 day): 1.3 g
KIDNEY_R ([…], time 14 day): 1.3 g
KIDNEY_TOTAL ([…], time 14 day): 2.7 g
KIDNEY_L ([…], time 28 day): 1.7 g
KIDNEY_R ([…], time 28 day): 1.7 g
KIDNEY_TOTAL ([…], time 28 day): 3.4 g
LIVER ([…], time 7 day): 12.4 g
LIVER ([…], time 14 day): 13 g
LIVER ([…], time 28 day): 14.8 g
A/G ([…], time 7 day): 1.9
ALP ([…], time 7 day): 795.8 IU/L
ALT ([…], time 7 day): 26.8 IU/L
AST ([…], time 7 day): 59 IU/L
BUN ([…], time 7 day): 40.4 mg/dL
CRE ([…], time 7 day): 0.6 mg/dL
Ca ([…], time 7 day): 10.6 mg/dL
Cl ([…], time 7 day): 105.2 meq/L
DBIL ([…], time 7 day): 0.002 mg/dL
GLC ([…], time 7 day): 199.6 mg/dL
IP ([…], time 7 day): 8 mg/dL
K ([…], time 7 day): 5.1 meq/L
LDH ([…], time 7 day): 97 IU/L
Na ([…], time 7 day): 137.4 meq/L
PL ([…], time 7 day): 144 mg/dL
RALB ([…], time 7 day): 3.7 g/dL
TBIL ([…], time 7 day): 0.4 mg/dL
TC ([…], time 7 day): 80.6 mg/dL
TG ([…], time 7 day): 85.2 mg/dL
TP ([…], time 7 day): 5.7 g/dL
gamma-GTP ([…], time 7 day): 1.2 IU/L
A/G ([…], time 14 day): 1.8
ALP ([…], time 14 day): 654.8 IU/L
ALT ([…], time 14 day): 26.8 IU/L
AST ([…], time 14 day): 58.6 IU/L
BUN ([…], time 14 day): 38.2 mg/dL
CRE ([…], time 14 day): 0.6 mg/dL
Ca ([…], time 14 day): 10.9 mg/dL
Cl ([…], time 14 day): 104.4 meq/L
DBIL ([…], time 14 day): 0.006 mg/dL
GLC ([…], time 14 day): 191 mg/dL
IP ([…], time 14 day): 8.9 mg/dL
K ([…], time 14 day): 4.8 meq/L
LDH ([…], time 14 day): 90.4 IU/L
Na ([…], time 14 day): 137 meq/L
PL ([…], time 14 day): 149 mg/dL
RALB ([…], time 14 day): 3.9 g/dL
TBIL ([…], time 14 day): 0.3 mg/dL
TC ([…], time 14 day): 78.8 mg/dL
TG ([…], time 14 day): 81.2 mg/dL
TP ([…], time 14 day): 6.1 g/dL
gamma-GTP ([…], time 14 day): 1.2 IU/L
A/G ([…], time 28 day): 1.7
ALP ([…], time 28 day): 553.2 IU/L
ALT ([…], time 28 day): 23.8 IU/L
AST ([…], time 28 day): 65.2 IU/L
BUN ([…], time 28 day): 44 mg/dL
CRE ([…], time 28 day): 0.7 mg/dL
Ca ([…], time 28 day): 10.9 mg/dL
Cl ([…], time 28 day): 105.2 meq/L
DBIL ([…], time 28 day): 0.062 mg/dL
GLC ([…], time 28 day): 195.4 mg/dL
IP ([…], time 28 day): 7.4 mg/dL
K ([…], time 28 day): 4.9 meq/L
LDH ([…], time 28 day): 100.2 IU/L
Na ([…], time 28 day): 137.6 meq/L
PL ([…], time 28 day): 150.2 mg/dL
RALB ([…], time 28 day): 3.9 g/dL
TBIL ([…], time 28 day): 0.3 mg/dL
TC ([…], time 28 day): 75.4 mg/dL
TG ([…], time 28 day): 97.8 mg/dL
TP ([…], time 28 day): 6.1 g/dL
gamma-GTP ([…], time 28 day): 1.8 IU/L
